Reference: PubChem BioAssay AID1259407 (Chemical Carcinogenesis Research Information System (CCRIS), 2018)
Activity calls are given as the source filed them. The rule behind the calls is not given here.

System: CCRIS mutagenicity, Ames/micronucleus/aberration tests
Test: CCRIS mutagenicity studies
[1] = Test System: AMES SALMONELLA TYPHIMURIUM, Strain/Indicator: TA98, Metabolic Activation: NONE, Method: PREINCUBATION
[2] = Test System: AMES SALMONELLA TYPHIMURIUM, Strain/Indicator: TA98, Metabolic Activation: RAT, LIVER, S-9, AROCLOR 1254, Method: PREINCUBATION
[3] = Test System: AMES SALMONELLA TYPHIMURIUM, Strain/Indicator: TA100, Metabolic Activation: NONE, Method: PREINCUBATION
[4] = Test System: AMES SALMONELLA TYPHIMURIUM, Strain/Indicator: TA100, Metabolic Activation: RAT, LIVER, S-9, AROCLOR 1254, Method: PREINCUBATION

Measured: mutagenic call

Nc1nc(N)nc(N)n1
inactive: End Point: IN VITRO CHROMOSOMAL ABERRATIONS, Test System: CHINESE HAMSTER OVARY CELLS, Metabolic Activation: NONE inactive; negative | End Point: IN VITRO CHROMOSOMAL ABERRATIONS, Test System: CHINESE HAMSTER OVARY CELLS, Metabolic Activation: RAT, LIVER, S-9, AROCLOR 1254 inactive; negative | Test System: AMES SALMONELLA TYPHIMURIUM, Strain/Indicator: TA98, Metabolic Activation: HAMSTER, LIVER, S-9, AROCLOR 1254, Method: PREINCUBATION inactive; negative | [1] inactive; negative | [2] inactive; negative | Test System: AMES SALMONELLA TYPHIMURIUM, Strain/Indicator: TA100, Metabolic Activation: HAMSTER, LIVER, S-9, AROCLOR 1254, Method: PREINCUBATION inactive; negative | [3] inactive; negative | [4] inactive; negative | Test System: AMES SALMONELLA TYPHIMURIUM, Strain/Indicator: TA1535, Metabolic Activation: HAMSTER, LIVER, S-9, AROCLOR 1254, Method: PREINCUBATION inactive; negative | Test System: AMES SALMONELLA TYPHIMURIUM, Strain/Indicator: TA1535, Metabolic Activation: NONE, Method: PREINCUBATION inactive; negative | Test System: AMES SALMONELLA TYPHIMURIUM, Strain/Indicator: TA1535, Metabolic Activation: RAT, LIVER, S-9, AROCLOR 1254, Method: PREINCUBATION inactive; negative | Test System: AMES SALMONELLA TYPHIMURIUM, Strain/Indicator: TA1537, Metabolic Activation: HAMSTER, LIVER, S-9, AROCLOR 1254, Method: PREINCUBATION inactive; negative | Test System: AMES SALMONELLA TYPHIMURIUM, Strain/Indicator: TA1537, Metabolic Activation: NONE, Method: PREINCUBATION inactive; negative | Test System: AMES SALMONELLA TYPHIMURIUM, Strain/Indicator: TA1537, Metabolic Activation: RAT, LIVER, S-9, AROCLOR 1254, Method: PREINCUBATION inactive; negative | Test System: UDS RAT HEPATOCYTES, Strain/Indicator: BROMODEOXYURIDINE INCORP, Metabolic Activation: NONE, Method: FLOW CYTOMETRIC ANALYSIS inactive; negative | Test System: UDS RAT HEPATOCYTES, Strain/Indicator: THY INCORP, Metabolic Activation: NONE, Method: AUTORADIOGRAPHY inactive; negative

CN1CCN(c2ccc3nc(Cc4ccc5nc(-c6ccc(N(CCCl)CCCl)cc6)[nH]c5c4)[nH]c3c2)CC1
inactive: Test System: AMES SALMONELLA TYPHIMURIUM, Strain/Indicator: TA98, Metabolic Activation: NONE, Method: STANDARD PLATE inactive; negative | Test System: AMES SALMONELLA TYPHIMURIUM, Strain/Indicator: TA100, Metabolic Activation: NONE, Method: STANDARD PLATE inactive; negative | Test System: AMES SALMONELLA TYPHIMURIUM, Strain/Indicator: TA102, Metabolic Activation: NONE, Method: STANDARD PLATE inactive; negative

CS(C)(=O)=O
inactive: [1] inactive; negative | [2] inactive; negative | [3] inactive; negative | [4] inactive; negative | Test System: AMES SALMONELLA TYPHIMURIUM, Strain/Indicator: TA102, Metabolic Activation: NONE, Method: PREINCUBATION inactive; negative | Test System: AMES SALMONELLA TYPHIMURIUM, Strain/Indicator: TA102, Metabolic Activation: RAT, LIVER, S-9, AROCLOR 1254, Method: PREINCUBATION inactive; negative
